In publication PMC7250851, “Discovery of a new sialic acid binding region that regulates Siglec-7” (Scientific Reports, 2020):
Entries after “also recorded” stand apart in the source; their conditions may differ.

Experiments:
Siglec-7V WT = test system: T1, Siglec-7V WT; assay: STD-NMR and 1H-NMR titration; assay type: binding, human; conditions: protein:ligand 1:20, 10 °C, pH 7.9
T1 construct: DNA fragments encoding human Siglec-7 V-set domain (residues 18–144) and the mutants were sub-cloned into the pCold-PDI vector; (His)6-PDI (cleaved yes); made in house; host or cells: Escherichia coli Origami B (DE3)
Procedure: (§1) Recombinant human Siglec-7 V-set domain and its mutants (R67A, R124A, R67K) were prepared using the pCold-PDI vector as previously described with modifications. DNA fragments encoding human Siglec-7 V-set domain (residues 18–144) and the mutants were sub-cloned into the pCold-PDI vector. The plasmids were transformed into Escherichia coli Origami B (DE3) (Novagen), and the cells were grown at 37 °C in LB medium. After induction with isopropyl β-D-thiogalactoside (0.5 mM), the cells were cultured at 15 °C for further 16 h. Then the cells were harvested and sonicated in 20 mM Tris-HCl (pH 8.0), and containing 0.1 M NaCl and 0.1 mM EDTA. After centrifugation, the supernatant containing (His)6-PDI-fused protein was collected and applied to a Ni sepharose column (GE healthcare) equilibrated with 20 mM Tris-HCl (pH 8.0), and containing 0.1 M NaCl. After washing with 20 mM Tris-HCl (pH 8.0) containing 0.1 M NaCl and 20 mM imidazole, the protein was eluted with 20 mM Tris-HCl (pH 8.0) containing 0.1 M NaCl and 500 mM imidazole. The (His)6-PDI-fused protein was extensively dialysed against 50 mM Tris-HCl (pH 8.0) containing 0.1 M NaCl, 5 mM reduced glutathione, 0.5 mM oxidised glutathione, and 10% glycerol. The protein was then digested with TEV protease to remove the (His)6-PDI tag. The digested proteins were passed through the Ni sepharose column and the final purification was performed with a Hiroad Superdex 75 pg size exclusion column (GE healthcare) equilibrated with 20 mM Tris-HCl (pH 8.0) containing 0.1 M NaCl.
(§2) NMR spectra were collected using the DRX-600 (600 MHz) spectrometer (Bruker; Billerica, MA, US) equipped with a TXI-probe. The probe temperature was set at 283 K. Siglec-7 V-set domains (WT, R124A, R67A) were prepared with 10 mM phosphate buffer including 150 mM NaCl in D2O (D: 99%). The final protein concentration before addition of the ligand was 55 μM (pH 7.9). The 5.5 mM diSia and triSia solutions (pH 7.9) in PBS were gradually added into the protein solution to achieve the protein:ligand molar ratios of 1:0, 1:1, 1:2, 1:5, 1:10, and 1:20; the ^1H-NMR spectra were obtained with the WATERGATE pulse sequence in each protein:ligand ratio. Data were collected for 1024 scans by suppressing the residual HDO signal to 3-9-19 pulse train. Saturation Transfer Difference (STD) NMR experiments were performed at the protein:ligand ratio of 1:20. The protein signal was saturated on resonance at 0.15 ppm and off resonance at 40 ppm with a cascade of 60 selective Gaussian shaped pulses of 50 ms duration and 3 s saturation in total. The WATERGATE pulse sequence was used to suppress the residual HDO signal, and a spin-lock filter with a strength of 8 kHz and a duration of 10 ms was applied to suppress protein background signal. All STD NMR experiments were collected for 1024 scans with an inter pulse delay of 100 μs. The Sias signal assignments have been previously described by Jennings et al.[34].

Siglec-7V R124A = test system: T2, Siglec-7V R124A; assay: STD-NMR and 1H-NMR titration; assay type: binding, human; conditions: protein:ligand 1:20, 10 °C, pH 7.9
T2 construct: DNA fragments encoding human Siglec-7 V-set domain (residues 18–144) and the mutants were sub-cloned into the pCold-PDI vector; (His)6-PDI (cleaved yes); made in house; host or cells: Escherichia coli Origami B (DE3)
Procedure: as §1, §2

Siglec-7V R67A = test system: T3, Siglec-7V R67A; assay: STD-NMR and 1H-NMR titration; assay type: binding, human; conditions: protein:ligand 1:20, 10 °C, pH 7.9
T3 construct: DNA fragments encoding human Siglec-7 V-set domain (residues 18–144) and the mutants were sub-cloned into the pCold-PDI vector; (His)6-PDI (cleaved yes); made in house; host or cells: Escherichia coli Origami B (DE3)
Procedure: as §1, §2

[1] = target: T4, GD3-Siglec-7EcFc interaction (Homo sapiens, UniProt Q9Y286); assay: Inhibition of GD3-Siglec-7EcFc binding (ELISA, double reciprocal plots); conditions: for Inhibition type: double reciprocal plots
T4 construct: the extracellular domain of Siglec-7 fused with the human IgG1 Fc region; made in house
Procedure: (§3) For ganglioside binding assay, 96-well plates (Nunc, Roskilde, Denmark) were coated with 50 μL/well of 0–6.0 µM ganglioside in ethanol and left to air dry overnight or at 37 °C for 2 h. The wells were washed three times with TBS and blocked with 1% BSA (w/v) in TBS. Siglec-7-Fc fusion protein (64 pmol/mL) was pre-complexed with a 1/1000 dilution of horseradish peroxidase-conjugated goat anti-human IgG + M + A (American Qualex) for 30 min at room temperature, and 50 μL of reaction mixture was added to each well. After 2 h incubation at room temperature, the wells were washed extensively, then 100 µL of 0.05% o-phenylenediamine in 0.1 M Tris-HCl (pH 6.8) containing 0.006% H2O2 was added and incubated at room temperature. The absorbance was then measured at 490 nm (Bio-Rad, Hercules, CA) after the addition of 100 µL of 2 N sulphuric acid. For measurement of the inhibition toward GD3-Siglec-7 interaction, inhibitors (0–200 μM for octyl-α2,8-mono/di/tri/teraSia, 0–50 μM for tetradecyl-ganglioside glycan), Siglec-7, and peroxidase conjugated anti-human IgG + IgM + IgA were pre-incubated at 25 °C for 30 min, and the reaction mixture with or without inhibitor was used as described above. All experiments were performed three times.

Siglec-7EcFc (R92A) = test system: T5, Siglec-7EcFc (R92A); assay: ELISA binding of Siglec-7EcFc to immobilised gangliosides / (Neu5Ac)n-PE; design: species or system human; conditions: ligand coated on plastic wells, compared with WT
T5 construct: the extracellular domain of Siglec-7 fused with the human IgG1 Fc region; made in house
Procedure: as §3

Siglec-7EcFc (R92K) = test system: T6, Siglec-7EcFc (R92K); assay: as above; design: species or system human; conditions: ligand coated on plastic wells, compared with WT
T6 construct: the extracellular domain of Siglec-7 fused with the human IgG1 Fc region; made in house
Procedure: as §3

Siglec-7EcFc (R67A) = test system: T7, Siglec-7EcFc (R67A); assay: as above; design: species or system human; conditions: ligand coated on plastic wells, compared with WT
T7 construct: the extracellular domain of Siglec-7 fused with the human IgG1 Fc region; made in house
Procedure: as §3

Siglec-7EcFc (R67K) = test system: T8, Siglec-7EcFc (R67K); assay: as above; design: species or system human; conditions: ligand coated on plastic wells, compared with WT
T8 construct: the extracellular domain of Siglec-7 fused with the human IgG1 Fc region; made in house
Procedure: as §3

Siglec-7EcFc (WT) = test system: T9, Siglec-7EcFc (WT); assay: as above; design: species or system human; conditions: ligand coated on plastic wells
T9 construct: the extracellular domain of Siglec-7 fused with the human IgG1 Fc region; made in house
Procedure: as §3

T4 sequence (Q9Y286 19-353 limits assumed): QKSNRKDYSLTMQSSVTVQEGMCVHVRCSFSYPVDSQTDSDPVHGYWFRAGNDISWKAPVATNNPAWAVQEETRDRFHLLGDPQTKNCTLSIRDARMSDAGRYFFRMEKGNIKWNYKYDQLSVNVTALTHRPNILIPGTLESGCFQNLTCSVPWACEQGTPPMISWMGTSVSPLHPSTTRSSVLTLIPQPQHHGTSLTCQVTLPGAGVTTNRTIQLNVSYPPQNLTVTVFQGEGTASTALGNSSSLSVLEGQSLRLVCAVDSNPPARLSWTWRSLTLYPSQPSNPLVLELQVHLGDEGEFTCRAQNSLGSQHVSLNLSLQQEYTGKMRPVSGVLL

| binding in solution (STD-NMR) (Siglec-7V WT) | binding in solution (STD-NMR) (Siglec-7V R124A) | binding in solution (STD-NMR) (Siglec-7V R67A) | Inhibition type [1] | binding activity (ELISA) (Siglec-7EcFc (WT)) | Compound | further results |
| --- | --- | --- | --- | --- | --- | --- |
| obviously recognised | very little or no interactions | obviously recognised |  |  | CC(=O)NC1C(O)CC(OC(CO)C(O)C2OC(O)(C(=O)O)CC(O)C2NC(C)=O)(C(=O)O)OC1C(O)C(O)CO (stereo not shown) [diSia, Neu5Acα(2-8)Neu5Ac-OH] |  |
| involved in binding | very little or no interactions | involved in binding |  |  | CC(=O)NC1C(O)CC(OC(CO)C(O)C2OC(OC(CO)C(O)C3OC(O)(C(=O)O)CC(O)C3NC(C)=O)(C(=O)O)CC(O)C2NC(C)=O)(C(=O)O)OC1C(O)C(O)CO (stereo not shown) [triSia, Neu5Acα(2-8)Neu5Acα(2-8)Neu5Ac-OH] |  |
|  |  |  | competitive inhibition |  | CCCCCCCCOC1(C(=O)O)CC(O)C(NC(C)=O)C(C(O)C(CO)OC2(C(=O)O)CC(O)C(NC(C)=O)C(C(O)C(O)CO)O2)O1 (stereo not drawn) [α2,8-diSia] | inhibition activity toward Siglec-7EcFc-GD3 interaction ([1]; octyl glycosides, 0–200 μM): the effect was weak |
|  |  |  | non-competitive inhibition |  | CCCCCCCCOC1(C(=O)O)CC(O)C(NC(C)=O)C(C(O)C(CO)OC2(C(=O)O)CC(O)C(NC(C)=O)C(C(O)C(CO)OC3(C(=O)O)CC(O)C(NC(C)=O)C(C(O)C(O)CO)O3)O2)O1 (stereo not drawn) [α2,8-triSia] | IC50 ([1]; octyl glycosides, 0–200 μM, GD3-coated plate): < 100 µM |
|  |  |  |  | higher binding activity | Neu5Acα2 → 8Neu5Aα2 → 3Galβ1 → 4Glc-Cer [GD3] | binding activity (ELISA) (Siglec-7EcFc (R92A)): almost the same binding activity; binding activity (ELISA) (Siglec-7EcFc (R92K)): almost the same binding activity; binding activity (ELISA) (Siglec-7EcFc (R67A)): significantly lower binding activity; also recorded: did not effectively bind; binding activity (ELISA) (Siglec-7EcFc (R67K)): significantly lower binding activity |
|  |  |  |  | Almost no binding activity | Neu5Aα2 → 3Galβ1 → 4Glc-Cer [GM3] |  |
